According to patent publication US7101906B2, “2,3,4-substituted cyclopentanones as therapeutic agents” (Allergan, Inc., priority 2004, dated 2006):

Experiments:
Type in all cases: in vivo
Beagle dogs [1] = assay: Ocular surface hyperemia in dogs; settings: dog, 0.03% topical; score 0.5 trace, 1 mild, 2 moderate, 3 severe
Method: Ocular surface hyperemia was visually assessed and scored according to a system typically used clinically.
Ocular surface hyperemia was evaluated at the same time points as intraocular pressure measurement. It should be noted that untreated dog eyes frequently have a pink/red tone. Thus, values of trace or even mild are not necessarily out of the normal range.

Beagle dogs [2] = assay: Intraocular pressure in dogs (pneumatonometry); settings: dog, 0.03% topical 25 μL drop to one eye, 5 day study
Method: (§1) Intraocular pressure studies in dogs involved pneumatonometry performed in conscious, Beagle dogs of both sexes (10–15 kg). The animals remained conscious throughout the study and were gently restrained by hand. Drugs were administered topically to one eye as a 25 μL volume drop, the other eye received 25 μL vehicle (0.1% polysorbate 80:10 mM TRIS) as a control. Proparacaine (0.1%) was used for corneal anesthesia during tonometry.
Intraocular pressure was determined just before drug administration and at 2, 4 and 6 hr thereafter on each day of the 5 day study. Drug was administered immediately after the first IOP reading.

cynomolgus monkeys = assay: Intraocular pressure in cynomolgus monkeys; settings: monkey, 0.03% topical, single dose, 2-24 h
Method: as §1
An analogous procedure was carried out with cynomolgus monkeys with measurements at 2, 4, 6, and 24 hours after a single dose.

Max hyperemia (Beagle dogs [1])	SMILES	Max. ΔIOP (mm Hg) (Beagle dogs [2])	Max. ΔIOP (mm Hg) (cynomolgus monkeys)
0.9	CC(C)OC(=O)CCC/C=C\C[C@H]1C(=O)CC[C@@H]1/C=C/C(O)CCc1sc2ccccc2c1Cl (single isomer, unassigned) [Compound 16b]	−5.7	−3.4
1.0	CC(C)OC(=O)CCC/C=C\C[C@H]1C(=O)CC[C@@H]1/C=C/C(O)CCc1sc2ccccc2c1Cl (single isomer, unassigned) [Compound 16c]	−4.8	−7.8
